EP0213490A2, “Colour-photographic recording material” (Agfa-Gevaert AG, priority 1985, dated 1987)

Key:
[1] = Solubility determination in ethyl acetate (parts by weight of solvent needed to dissolve one part of yellow dye); format: physicochemical; settings: Ethylacetat, 60°C
Procedure: Von den erfindungsgemäßen Verbindungen II-1, 11-5 und III-1 sowie von den strukturanalogen Vergleichsverbindungen V-1, V-2, V-3, V-4, V-5 und V-6 wurden deren Löslichkeit in Ethylacetat bei 60°C bestimmt. Hierzu wurde ermittelt, wieviele Gewichtsteile Lösungsmittel zum Lösen eines Gewichtsteils Gelbfarbstoff erforderlich sind. Die miteinander zu vergleichenden Farbstoffe unterschieden sich jeweils ausschließlich in der Substitution des Phenylazorestes

[2] = Dissolving the mask coupler in tricresyl phosphate/ethyl acetate for dispersion preparation; format: physicochemical; settings: 55°C
Procedure: Von der erfindungsgemäßen Verbindung 11-1 wurde die Dispersion la und von der betreffenden Vergleichsverbindung V-2 wurde die Dispersion lb jeweils nach der nachfolgend beschriebenen Vorschrift hergestellt. 100 g Maskenkuppler werden in einer Abmischung aus 100 g Trikresylphosphat und 300 g Ethylacetat bei 55^*C gelöst. […] Die Lösung wird in 1 kg einer 7,5 %igen wäßrigen Gelatine, die ebenfalls auf 55°C erhitzt ist und mit 10 g Alkanol XC versehen war, mit einem hochtourigen Mischer einemulgiert. Anschließend wurde das niedrig siedende Lösungsmittel im Vakuum entfernt und die zurückbleibende Dispersion bei 6°C erstarrt.
Gemäß der im Beispiel 2 beschriebenen allgemeinen Vorschrift wurde aus der erfindungsgemäßen Verbindung 11-5 die Dispersion 2a und aus der betreffenden Vergleichsverbindung V-4 die Dispersion 2b hergestellt. (Die Vergleichsverbindung V-4 mußte, damit sie in Lösung ging, in der hydrophoben Dispersionsphase auf 70°C erhitzt werden).

| SMILES | 1 Gew.-Teil Verbindung löst sich in X Gew.-Teilen Ethyl-acetat [1] | Dissolution of 100 g Maskenkuppler in 100 g Trikresylphosphat and 300 g Ethylacetat [2] |
| --- | --- | --- |
| CCCCCCCCCCCCCC(=O)Nc1ccc(Cl)c(NC2=NN(c3c(Cl)cc(Cl)cc3Cl)C(=O)C2N=Nc2ccc(OCC)c(OCC)c2)c1 (centres unmarked) [V-2] | 19 Gew.-Teilen Ethyl-acetat | mußte neben Ethylacetat noch soviel Tetrahydrofuran zugesetzt werden, daß sie bei 55 °C in Lösung ging |
| CCCCCCCCCCCCCC(=O)Nc1ccc(Cl)c(NC2=NN(c3c(Cl)cc(Cl)cc3Cl)C(=O)C2N=Nc2ccc(OCCC)c(OCCC)c2)c1 (centres unmarked) [V-3] | 23 Gew.-Teilen Ethyl-acetat |  |
| CCCCCCCCCCCCCC(=O)Nc1ccc(Cl)c(NC2=NN(c3c(Cl)cc(Cl)cc3Cl)C(=O)C2N=Nc2ccc(OC(C)C)c(OC(C)C)c2)c1 (centres unmarked) [II-1] | 2,5 Gew.-Teilen Ethyl-acetat |  |
| CCCCCCCCCCCCCC(=O)Nc1ccc(Cl)c(NC2=NN(c3c(Cl)cc(Cl)cc3Cl)C(=O)C2N=Nc2ccc(OC)c(OC)c2)c1 (centres unmarked) [V-1] | 15 Gew.-Teilen Ethyl-acetat |  |
